Measured values as given in US20220296480A1, “TOPICAL COMPOSITIONS” (DSM IP ASSETS B.V., priority 2019, published 2022).

System: A. brasiliensis
Assay: Preservation challenge test of inoculated O/W emulsion (ISO 11930)
Format: cell-based, Aspergillus brasiliensis
Conditions: stored 22.5±2.5° C
Protocol: The evaluation of the preservation of a cosmetic formulation is based on inoculation of the formulation as outlined in table 1 with calibrated inocula (prepared from relevant strains of micro-organisms). Therefore, to each formulation 0.2 ml of calibrated inoculum is added to obtain between 1×10^2 cfu/ml and 1×10^6 cfu/ml or g of A. brasiliensis in the formulation (final concentration), which is mixed thoroughly into the formulation to ensure a homogeneous distribution of the inoculum. Then the respective containers containing the inoculated formulations are stored @22.5±2.5° C. At each specified sampling interval (initial (T0), 7 days (T7) and 28 days ([…])) 1 g of the inoculated formulation is taken and a dilution prepared to perform the enumeration of surviving micro-organisms. Then, for each time and each strain/strain mixture, the average log value is calculated which is represented in tables 2 and 3. (Procedure: see ISO 11930, chapter 5.2.-5.6.3.4. (page 3-13)) [table]

[1] = ERY 0.1 wt.-%, HG & EHG 0.9 wt.-%, time 0 days (T0)
[2] = ERY 0.1 wt.-%, HG & EHG 0.9 wt.-%, time 7 days (T7)
[3] = ERY 0.4 wt.-%, HG & EHG 0.6 wt.-%, time 0 days (T0)
[4] = ERY 0.4 wt.-%, HG & EHG 0.6 wt.-%, time 7 days (T7)

SMILES: O=C(CO)[C@H](O)CO (racemic) [ERY, Erythrulose]
- Average log [cfu/ml] [1]: 1.8 log [cfu/ml]
- Average log [cfu/ml] [2]: 3.5 log [cfu/ml]
- Average log [cfu/ml] [3]: 2.0 log [cfu/ml]
- Average log [cfu/ml] [4]: 2.9 log [cfu/ml]

SMILES: CCCCC(CC)COCC(O)CO (stereo not shown) [EHG, Ethylhexyl glycerine]
- Average log [cfu/ml] [1]: 4.6 log [cfu/ml]
- Average log [cfu/ml] [2]: 4.2 log [cfu/ml]
- Average log [cfu/ml] (ERY 0.1 wt.-%, HG & EHG 0.9 wt.-%, time 28 days (T28)): 4.5 log [cfu/ml]
- Average log [cfu/ml] [3]: 4.6 log [cfu/ml]
- Average log [cfu/ml] [4]: 4.4 log [cfu/ml]
- Average log [cfu/ml] (ERY 0.4 wt.-%, HG & EHG 0.6 wt.-%, time 28 days (T28)): 4.6 log [cfu/ml]
